Reference: patent US10226509B2, “Lymphangiogenesis inhibitors for cancer and for graft survival” (TUFTS UNIVERSITY, priority 2014, dated 2019)
Read-outs that look alike come from different tables or passages of the source. Values belong to the molecule of their own block, whether it stands above or below them.

Assays:
[1] = system: Gal-8-induced LEC sprouting; assay: LEC sprouting assay: Gal-8-induced sprouting with inhibitors or knockdown; format: cell-based, human
Experimental: LEC spheroids were generated by seeding primary LECs at passage 4 or 5 in each well of 384-well hanging-drop plates (3D Biomatrix) in complete EGM-2 MV medium containing 0.25% methyl cellulose according to the manufacturer's instructions (750 cells/well). After 18 hours, LEC spheroids were collected, resuspended in serum-free EBM-2 basal medium, and mixed with collagen solution (PureCol collagen, Advanced BioMatrix, 2.2 mg/ml in M199 medium, pH adjusted to 7.4 with NaHCO3 and NaOH). Aliquots of the LEC spheroid/collagen mixture (250 μl/well of 48-well plate) were incubated in the presence or absence of various test agents for 24 hr. At the end of the incubation period, spheroids were stained with Calcein AM (Invitrogen, 1 μg/mL, 37° C., and 30 min). Fluorescent images were acquired using the EVOS FL cell imaging system, pixels were inverted for better visualization and cumulative length of each sprout was calculated. Results were expressed as fold change compared to corresponding controls. […] Test agents used included thiodigalactoside (10 to 50 mM, Carbosynth), 3′-sialyl lactose (2 to 10 mM, Carbosynth), 6′-sialyl lactose (2 to 10 mM, Carbosynth), LY294002 (20 μM, Abeam), U0126 (20 μM, Abeam), PD0325901 (1 μM, Selleckchem), human VEGFR-3-Fc chimera (10 μg/ml, R&D), human VEGFR-2-Fc chimera (10 μg/ml, R&D), Avastin (10 μg/ml, bevacizumab, Genentech/Roche), human control IgG (10 μg/ml, Southern Biotech), anti-human podoplanin functional grade antibody (10 μg/ml, eBioscience), and rat IgG2a κ isotype control functional grade antibody (10 μg/ml, eBioscience).
To determine the role of these pathways on Gal-8-induced lymphangiogenesis, LEC spheroids were stimulated with Gal-8 (0.75 μM) in the presence or absence of PI3K inhibitor (LY294002, 20 μM) and two different MEK inhibitors (U0126, 20 μM; PD0325901, 1 μM). After overnight treatment with Gal-8, accumulated sprout lengths were quantified.

[2] = system: VEGF-C-induced LEC sprouting; assay: LEC sprouting assay: VEGF-C-induced sprouting; format: cell-based, human; conditions: VEGF-C 50 ng/ml, 24 h
Experimental: (§1) LEC spheroids were generated by seeding primary LECs at passage 4 or 5 in each well of 384-well hanging-drop plates (3D Biomatrix) in complete EGM-2 MV medium containing 0.25% methyl cellulose according to the manufacturer's instructions (750 cells/well). After 18 hours, LEC spheroids were collected, resuspended in serum-free EBM-2 basal medium, and mixed with collagen solution (PureCol collagen, Advanced BioMatrix, 2.2 mg/ml in M199 medium, pH adjusted to 7.4 with NaHCO3 and NaOH). Aliquots of the LEC spheroid/collagen mixture (250 μl/well of 48-well plate) were incubated in the presence or absence of various test agents for 24 hr. At the end of the incubation period, spheroids were stained with Calcein AM (Invitrogen, 1 μg/mL, 37° C., and 30 min). Fluorescent images were acquired using the EVOS FL cell imaging system, pixels were inverted for better visualization and cumulative length of each sprout was calculated. Results were expressed as fold change compared to corresponding controls. It was observed that sprout lengths vary from passages to passages. Test agents used included thiodigalactoside (10 to 50 mM, Carbosynth), 3′-sialyl lactose (2 to 10 mM, Carbosynth), 6′-sialyl lactose (2 to 10 mM, Carbosynth), LY294002 (20 μM, Abeam), U0126 (20 μM, Abeam), PD0325901 (1 μM, Selleckchem), human VEGFR-3-Fc chimera (10 μg/ml, R&D), human VEGFR-2-Fc chimera (10 μg/ml, R&D), Avastin (10 μg/ml, bevacizumab, Genentech/Roche), human control IgG (10 μg/ml, Southern Biotech), anti-human podoplanin functional grade antibody (10 μg/ml, eBioscience), and rat IgG2a κ isotype control functional grade antibody (10 μg/ml, eBioscience).
In this assay, the LEC spheroids were treated with VEGF-C (50 ng/ml) in the presence or absence of 0.75 μM of Gal-8 for 24 hours, and then accumulated sprout lengths were quantified. […] Synergistic effect of Gal-8 on VEGF-C-induced LEC sprouting was dose-dependent. […] At concentrations >0.5 μM Gal-8, there was no further increase in the degree of VEGF-C-induced lymphangiogenesis (FIG. 4C).
To further characterize the role of carbohydrate-mediated recognition in VEGF-C-induced lymphangiogenesis, LEC spheroids were stimulated with VEGF-C (50 ng/ml) in the presence or absence of three different galectin inhibitors. […] Therefore, the data establishes the critical role of Gal-8-mediated carbohydrate-mediated recognition in VEGF-C-induced lymphangiogenesis.

VEGFR-3 = assay: Affinity precipitation assay, VEGFR-3; format: binding, human; conditions: 0.1 M sugar
Experimental: (§2) Five mg of plant lectins (Vector Labs) and galectins were conjugated to 330 mg of Pierce® NHS-activated agarose dry resin in accordance with the manufacturer's instructions (Thermo Scientific). Primary LECs (Lonza) were lysed in Triton lysis buffer (20 mM Tris-HCl, pH 7.4; 150 mM NaCl; 0.5% Triton X-100 with protease inhibitor cocktail). LEC lysates (250 μg in 500 μL lysis buffer supplemented with 10 mM MgCl2) were incubated with 40 μL (50% slurry) of agarose-conjugated lectins (4° C., overnight). Beads were pelleted by centrifugation at 3000 rpm for 1 min. Non-specific binding proteins were removed by washing the beads with Triton lysis buffer once and PBS twice. Supernatants were discarded; bound proteins were eluted by boiling the beads with 20 μL of 2× Laemmli sample buffer for 7 min, and examined by western blotting.
Next, a series of examples were performed to determine whether VEGF-C-induced lymphangiogenesis is dependent on Gal-8. To determine whether VEGFR-3 is a Gal-8-binding protein, LEC lysates were incubated with Gal-8-conjugated agarose beads in the presence or absence of 0.1 M of lactose (an inhibiting sugar) or sucrose (a non-inhibiting sugar). Bound proteins were examined and were compared to total cell lysates (input) by western blot using anti-VEGFR-3 antibody. Three forms of VEGFR-3 (125 kDa, 175 kDa and 195 kDa) were detected in total cell lysates (FIG. 5A) (Bando, H., et al. 2004. Int J Cancer 111:184-191.). […] Having shown that Gal-8 binds to VEGFR-3 in LECs and that the carbohydrate-binding activity of Gal-8 is required for the synergistic effect of Gal-8 on VEGF-C-induced LEC sprouting, it was of interest to determine whether VEGFR-3 bears 3′-sialylated glycans.

PDPN = target: T1, PDPN (Homo sapiens, UniProt Q86YL7); assay: Affinity precipitation assay, PDPN; format: binding; conditions: for inhibition of binding of PDPN to Gal-8: 0.1 M sugar; for binding of PDPN (in words): galectin-conjugated agarose beads, LEC lysates
T1 construct: Within the whole cell lysate, an anti-PDPN-reactive 43-kDa component was detected; host or cells: primary lymphatic endothelial cells (LECs)
T1 sequence (Q86YL7 23-162): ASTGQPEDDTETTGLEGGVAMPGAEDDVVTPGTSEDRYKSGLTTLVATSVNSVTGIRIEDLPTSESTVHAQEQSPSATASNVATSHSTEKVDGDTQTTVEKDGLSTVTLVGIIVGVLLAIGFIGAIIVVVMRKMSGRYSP
Experimental: as §2
To determine whether PDPN binds to Gal-8 in a carbohydrate-dependent manner, LEC lysates were incubated with Gal-8-conjugated to agarose beads in the presence or absence of 0.1 M of lactose (an inhibiting sugar) or sucrose (a non-inhibiting sugar). Bound proteins were examined with total cell lysates (input) by western blot using an anti-PDPN antibody. To determine specificity of PDPN binding to Gal-8, LEC lysates were also incubated with agarose beads conjugated to Gal-1, Gal-3 and Gal-7. Within the whole cell lysate, an anti-PDPN-reactive 43-kDa component was detected (FIG. 7A).

LEC spheroids = assay: LEC sprouting assay: stimulation by galectins alone; format: cell-based, human; conditions: 24 hours
Experimental: as §1
To assess the effect of galectins on LEC sprouting, LEC spheroids were embedded in a collagen matrix and incubated with media containing various test agents. After 24 hours, the cumulative length of the sprouts for each spheroid was quantified by ImageJ. […] Multiple approaches were used to determine whether the stimulatory effect of Gal-8 on LEC sprouting was carbohydrate-dependent.

[3] = Gal-8 0.75 μM, 24 h, TDG 20 mM, LY294002 20 μM, U0126 20 μM, PD0325901 1 μM, Avastin 10 μg/ml, Obtustatin 4 μM, antibodies 20 μg/ml, siRNA-transfected LECs

Molecule: CC(=O)N[C@H]1[C@H]([C@H](O)[C@H](O)CO)O[C@@](OC[C@H]2O[C@@H](O[C@H]3[C@H](O)[C@@H](O)[C@H](O)O[C@@H]3CO)[C@H](O)[C@@H](O)[C@H]2O)(C(=O)O)C[C@@H]1O [6′-SL, 6′-sialyl lactose]
effect on Gal-8-induced LEC sprouting (in words) [1, 3]: had no effect

Molecule: O=C(NOC[C@H](O)CO)c1ccc(F)c(F)c1Nc1ccc(I)cc1F [PD0325901]
effect on Gal-8-induced LEC sprouting (in words) [1, 3]: markedly inhibited

Molecule: N#CC(=C(/N)Sc1ccccc1N)/C(C#N)=C(\N)Sc1ccccc1N [U0126]
effect on Gal-8-induced LEC sprouting (in words) [1]: markedly inhibited

Molecule: Gal-8Q47A: Gal-8 mutant which has lost its ability to bind to α2,3-sialylated glycans
promotion of LEC sprouting by the agent alone (in words) (LEC spheroids): not promote lymphangiogenesis

Molecule: Obtustatin: a blocking peptide against integrin α1β1 (CTTGPCCRQCKLKPAGTTCWKTSLTSHYCTGKSCDCPLYPG) [reference compound]
effect on Gal-8-induced LEC sprouting (in words) [1, 3]: inhibited
effect on VEGF-C-induced LEC sprouting (in words) [2]: inhibited

B1: VEGFR-3-Fc: human VEGFR-3-Fc chimera (protein)
chain: YSMTPPTLNITEESHVIDTGDSLSISCRGQHPLEWAWPGAQEAPATGDKDSEDTGVVRDCEGTDARPYCKVLLLHEVHANDTGSYVCYYKYIKARIEGTTAASSYVFVRDFEQPFINKPDTLLVNRKDAMWVPCLVSIPGLNVTLRSQSSVLWPDGQEVVWDDRRGMLVSTPLLHDALYLQCETTWGDQDFLSNPFLVHITGNELYDIQLLPRKSLELLVGEKLVLNCTVWAEFNSGVTFDWDYPGKQAERGKWVPERRSQQTHTELSSILTIHNVSQHDLGSYVCKANNGIQRFRESTEVIVHENPFISVEWLKGPILEATAGDELVKLPVKLAAYPPPEFQWYKDGKALSGRHSPHALVLKEVTEASTGTYTLALWNSAAGLRRNISLELVVNVPPQIHEKEASSPSIYSRHSRQALTCTAYGVPLPLSIQWHWRPWTPCKMFAQRSLRRRQQQDLMPQCRDWRAVTTQDAVNPIESLDTWTEFVEGKNKTVSKLVIQNANVSAMYKCVVSNKVGQDERLIYFYVTTIPDGFTIESKPSEELLEGQPVLLSCQADSYKYEHLRWYRLNLSTLHDAHGNPLLLDCKNVHLFATPLAASLEEVAPGARHATLSLSIPRVAPEHEGHYVCEVQDRRSHDKHCHKKYLSVQALEAPRLTQNLTDLLVNVSDSLEMQCLVAGAHAPSIVWYKDERLLEEKSGVDLADSNQKLSIQRVREEDAGRYLCSVCNAKGCVNSSASVAVEGSEDKGSMEI
modifications: left off: a dimerising Fc or GST
notes: human VEGFR-3-Fc chimera
% inhibition of Gal-8-induced LEC sprouting ([1]; Gal-8 0.75 μM, 10 μg/ml, 24 hours): 37%
effect on VEGF-C-induced LEC sprouting (in words) [2]: inhibited

The next lines start with results.

IC50 ([1]; galectin-8 at 0.75 μM, read-out: IC50 of the inhibitory effect on galectin-8-mediated LEC sprouting): 1250 µM
Ki ([1]; galectin-8 at 0.75 μM, read-out: Ki (Ki=IC50/(1+[A]/EC50))): 1670 µM
Molecule: CC(=O)N[C@H]1[C@H]([C@H](O)[C@H](O)CO)O[C@@](O[C@H]2[C@@H](O)[C@@H](CO)O[C@@H](O[C@H]3[C@H](O)[C@@H](O)C(O)O[C@@H]3CO)[C@@H]2O)(C(=O)O)C[C@@H]1O (some centres unmarked) [3′-SL, 3′-sialyllactose]
inhibition of Gal-8-induced LEC sprouting ([1]; at 2 mM concentration): 95%
nH of inhibition of galectin-8-mediated LEC sprouting ([1]; galectin-8 at 0.75 μM): 3.38
effect on VEGF-C-induced LEC sprouting (in words) [2]: inhibited

inhibition of binding of VEGFR-3 to Gal-8 (VEGFR-3): inhibited
inhibition of binding of PDPN to Gal-8 (PDPN): inhibited
Molecule: OC[C@H]1O[C@@H](O[C@H]2[C@H](O)[C@@H](O)C(O)O[C@@H]2CO)[C@H](O)[C@@H](O)[C@H]1O (some centres unmarked) [lactose, reference compound]

inhibition of binding of VEGFR-3 to Gal-8 (VEGFR-3): not sucrose, a noncompeting sugar
inhibition of binding of PDPN to Gal-8 (PDPN): not by sucrose
Molecule: OC[C@H]1O[C@@](CO)(O[C@H]2O[C@H](CO)[C@@H](O)[C@H](O)[C@H]2O)[C@@H](O)[C@@H]1O [sucrose, reference compound]

binding of PDPN (in words) (PDPN): does not bind
Molecule: Gal-1: recombinant galectin-1
effect on VEGF-C-induced LEC sprouting (in words) [2]: did not potentiate
promotion of LEC sprouting by the agent alone (in words) (LEC spheroids): not Gal-1, Gal-3 or Gal-7, promotes LEC sprouting

binding of PDPN (in words) (PDPN): does not bind
Molecule: Gal-3: recombinant galectin-3
effect on VEGF-C-induced LEC sprouting (in words) [2]: did not potentiate
promotion of LEC sprouting by the agent alone (in words) (LEC spheroids): not Gal-1, Gal-3 or Gal-7, promotes LEC sprouting

binding of PDPN (in words) (PDPN): does not bind
Molecule: Gal-7: recombinant galectin-7
effect on VEGF-C-induced LEC sprouting (in words) [2]: did not potentiate
promotion of LEC sprouting by the agent alone (in words) (LEC spheroids): not Gal-1, Gal-3 or Gal-7, promotes LEC sprouting
